Test results as given in patent US8420696B2, “Use of low-dose ladostigil for neuroprotection” (priority 2005, dated 2013).

What was measured:
[1] = system: rats injected icv with STZ (spatial memory); assay: Place recognition test after icv STZ; format: in vivo, Sprague-Dawley rats
Experimental: (§1) Male Sprague-Dawley rats (63) weighing 320-340 g, aged 4 months, were anesthetized by an intraperitoneal injection of Equithesin 0.3 ml/kg. STZ (0.5 mg) dissolved in 2 μl artificial cerebrospinal fluid (CSF) was injected into each lateral ventricle of 45 rats. The stereotaxic co-ordinates for icv injection were: 0.9 mm posterior, 1.8 mm lateral and 3.8 mm ventral from the bregma level. Control rats (18) received a bilateral injection of 2 μl artificial CSF. STZ-injected rats (25) were given ladostigil (1 mg/kg of the hemitartrate salt/day) orally in a volume of (1 ml/kg) from one week before, until 1 or 8 weeks after icv STZ. The remaining 20 rats received 1 ml/kg water. The rats were housed two per cage with free access to food and water until the behavioral, enzymatic and cytochemical measurements were completed.
Episodic memory in the object recognition test was still intact 2 but not 4 weeks after a single icv STZ injection (Table 3). […] The object recognition test measured non-spatial working memory with characteristics of episodic memory that is primarily affected in senile dementia (Bartolini et al., Aniracetam restores object recognition impaired by age, scopolamine, and nucleus basalis lesions, Pharmacol. Biochem. Behav. (1996) 53:277-83). […] Two identical objects were placed in the arena and the time taken by the rats to explore each object during a period of 3 min was recorded. […]

[2] = system: NT immunoreactivity in astrocytes; assay: Example 2: astrocyte activation and NT immunoreactivity in hippocampus and regions bordering lateral ventricles after icv STZ; format: in vivo, Sprague-Dawley rats; details: 1 mg/kg/day orally, one week after icv STZ
Experimental: as §1, with “completed. […]” for “completed.”
Nitrotyrosine, (NT) a marker of nitrative/oxidative stress, was stained with rabbit anti-nitrotyrosine from Upstate (Lake Placid, N.Y., USA), diluted 1:100 followed by the secondary donkey anti-rabbit conjugated with horseradish peroxidase from Chemicon (Temecula, Calif., USA), was diluted 1:200. […] Images were obtained by bright field microscopy and quantitative assessments of appropriate markers were made using AnalySIS software. […]
For each quantitative analysis of NT-immunoreactive astrocytes, 3 sections were sampled from each rat. […]

C#CCN[C@@H]1CCc2ccc(OC(=O)N(C)CC)cc21 [ladostigil, R(+)-6-(N-methyl,N-ethyl-carbamoyloxy)-N′-propargyl-1-aminoindan]
Discrimination index, Place ([1]; STZ (4 weeks) + ladostigil 1 mg/kg chronic, mean ± s.e.m.): 0.211 ± 0.07
Discrimination in place recognition test ([1]; icv STZ with chronic ladostigil, significantly >0, P<0.05): significant discrimination index
Astrocyte activation and NT immunoreactivity in CA1, corpus callosum, medial and lateral septum [2]: reduced both astrocyte activation and NT immunoreactivity in these brain regions to the level of that seen in CSF-injected controls
